The results in this text go back to US20110086759A1, “CHEMICAL COMPOUNDS” (SYNGENTA CROP PROTECTION, INC., priority 2007, published 2011).

Holding throughout (type): in vivo
The test system of assay [1] is Echinochloa crus-galli (ECHCG). Put plainly: Pre-emergence biological efficacy, glasshouse pot test. The following applies: 312 h. An outline of the steps:
(§1)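 Visual phytotoxicity (0 no damage, 100 total damage) assessed 13 d after treatment. Soil-sown pots sprayed one day post-sowing; dose 1000 or 250 g/ha; formulation in acetone/water 50:50, 0.5% Tween 20.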

The test system of assay [2] is Amaranthus retoflexus (AMARE). The description is as above. To be noted: Amaranthus retroflexus, 312 h. An outline of the steps: as §1
Assay [3] has as its system Solanum nigrum (SOLNI). The assay is described as above. The following applies: 312 h. The procedure, abridged:
as §1

For assay [4], the system named is Alopecurus myosuroides (ALOMY). The assay is described as above. The following applies: 312 h. An outline of the steps:
as §1

Assay [5] concerns Setaria faberi (SETFA). The description is as above. To be noted: 312 h. An outline of the steps:
as §1

The test system of assay [6] is Ipomea hederaceae (IPOHE). The description is as above. The following applies: Ipomoea hederacea, 312 h. An outline of the steps: as §1
Assay [7] has as its system Echinochloa crus-galli (ECHCG). Put plainly: Post-emergence biological efficacy, glasshouse pot test. The following applies: 312 h. An outline of the steps:
(§2)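 Pot-grown weeds were sprayed 8 days after sowing with test compound in acetone/water (50:50) with 0.5% Tween 20 at 1000 or 250 g/ha. Glasshouse at 24/16° C day/night, 14 h light, 65% humidity. Damage scored 0-100 (100 = total damage) after 13 days.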

Assay [8] has as its system Amaranthus retoflexus (AMARE). Described as above. The following applies: Amaranthus retroflexus, 312 h. The procedure, abridged: as §2
In assay [9] the test system is Solanum nigrum (SOLNI). Described as above. The following applies: 312 h. The procedure, abridged: as §2
Assay [10] has as its system Alopecurus myosuroides (ALOMY). The description is as above. To be noted: 312 h. An outline of the steps:
as §2

Assay [11] deals with Setaria faberi (SETFA). Described as above. To be noted: 312 h. An outline of the steps:
as §2

Assay [12] concerns Ipomea hederaceae (IPOHE). Described as above. The following applies: Ipomoea hederacea, 312 h. An outline of the steps:
as §2

Where [13] appears, read: pre-emergence, 1,000 g/ha, evaluated after 13 days (100=total damage; 0=no damage), read-out: Percentage damage ECHCG.
Setting [14] is: pre-emergence, 1,000 g/ha, evaluated after 13 days (100=total damage; 0=no damage), read-out: Percentage damage AMARE.
[15] abbreviates: pre-emergence, 1,000 g/ha, evaluated after 13 days (100=total damage; 0=no damage), read-out: Percentage damage SOLNI.
[16] abbreviates: pre-emergence, 1,000 g/ha, evaluated after 13 days (100=total damage; 0=no damage), read-out: Percentage damage ALOMY.
[17] abbreviates: pre-emergence, 1,000 g/ha, evaluated after 13 days (100=total damage; 0=no damage), read-out: Percentage damage SETFA.
The mark [18] stands for this setting: pre-emergence, 1,000 g/ha, evaluated after 13 days (100=total damage; 0=no damage), read-out: Percentage damage IPOHE.
Where [19] appears, read: post-emergence, 1,000 g/ha, evaluated after 13 days (100=total damage; 0=no damage), read-out: Percentage damage caused to weed species, ECHCG.
[20] abbreviates: post-emergence, 1,000 g/ha, evaluated after 13 days (100=total damage; 0=no damage), read-out: Percentage damage caused to weed species, AMARE.
The mark [21] stands for this setting: post-emergence, 1,000 g/ha, evaluated after 13 days (100=total damage; 0=no damage), read-out: Percentage damage caused to weed species, SOLNI.
The mark [22] stands for this setting: post-emergence, 1,000 g/ha, evaluated after 13 days (100=total damage; 0=no damage), read-out: Percentage damage caused to weed species, ALOMY.
[23] abbreviates: post-emergence, 1,000 g/ha, evaluated after 13 days (100=total damage; 0=no damage), read-out: Percentage damage caused to weed species, SETFA.
The mark [24] stands for this setting: post-emergence, 1,000 g/ha, evaluated after 13 days (100=total damage; 0=no damage), read-out: Percentage damage caused to weed species, IPOHE.
[25] abbreviates: pre-emergence, rate 1,000 g/ha, evaluated after 13 days (100=total damage to plant; 0=no damage), read-out: Percentage damage caused to weed species, ECHCG.
The mark [26] stands for this setting: pre-emergence, rate 1,000 g/ha, evaluated after 13 days (100=total damage to plant; 0=no damage), read-out: Percentage damage caused to weed species, AMARE.
Setting [27] is: pre-emergence, rate 1,000 g/ha, evaluated after 13 days (100=total damage to plant; 0=no damage), read-out: Percentage damage caused to weed species, SOLNI.
[28] abbreviates: pre-emergence, rate 1,000 g/ha, evaluated after 13 days (100=total damage to plant; 0=no damage), read-out: Percentage damage caused to weed species, ALOMY.
Setting [29] is: pre-emergence, rate 1,000 g/ha, evaluated after 13 days (100=total damage to plant; 0=no damage), read-out: Percentage damage caused to weed species, SETFA.
[30] abbreviates: pre-emergence, rate 1,000 g/ha, evaluated after 13 days (100=total damage to plant; 0=no damage), read-out: Percentage damage caused to weed species, IPOHE.
Setting [31] is: Rate 1,000 g/ha, post-emergence spray, evaluated after 13 days (100=total damage to plant; 0=no damage to plant), read-out: Percentage damage caused to weed species, post-emergence, ECHCG.
The mark [32] stands for this setting: Rate 1,000 g/ha, post-emergence spray, evaluated after 13 days (100=total damage to plant; 0=no damage to plant), read-out: Percentage damage caused to weed species, post-emergence, AMARE.
Setting [33] is: Rate 1,000 g/ha, post-emergence spray, evaluated after 13 days (100=total damage to plant; 0=no damage to plant), read-out: Percentage damage caused to weed species, post-emergence, SOLNI.
Setting [34] is: Rate 1,000 g/ha, post-emergence spray, evaluated after 13 days (100=total damage to plant; 0=no damage to plant), read-out: Percentage damage caused to weed species, post-emergence, ALOMY.
Where [35] appears, read: Rate 1,000 g/ha, post-emergence spray, evaluated after 13 days (100=total damage to plant; 0=no damage to plant), read-out: Percentage damage caused to weed species, post-emergence, SETFA.
The mark [36] stands for this setting: Rate 1,000 g/ha, post-emergence spray, evaluated after 13 days (100=total damage to plant; 0=no damage to plant), read-out: Percentage damage caused to weed species, post-emergence, IPOHE.

For the compound `COC(=O)c1nc(C2CC2)nc(NCC(F)c2ccc(Br)cc2F)c1Cl` (stereo not drawn) [Compound 4-240, 4-[2-(4-Bromo-2-fluorophenyl)-2-fluoro-ethylamino]-5-chloro-2-cyclopropyl-6-methoxycarbonyl-pyrimidine], the pest or weed control at 1000 g/ha in [1] (setting [13]) is 0%; in assay [2] (setting [14]), 30%; in the assay with Solanum nigrum (SOLNI) [3] (setting [15]), 10%; in assay [4] (setting [16]), 0%; in the assay with Setaria faberi (SETFA) [5] (setting [17]), 0%; in assay [6] (setting [18]), 0%. For the same compound, the pest or weed control at 1000 g/ha in assay [7] (setting [19]) came out at 0%; in assay [8] (setting [20]) it was 100%; in the assay with Solanum nigrum (SOLNI) [9] (setting [21]), 70%; in assay [10] (setting [22]), 10%; with Setaria faberi (SETFA) [11] (setting [23]), 30%; in assay [12] (setting [24]) it was 60%.
For `COC(=O)c1nc(C2CC2)nc(NCC(C)(F)c2ccc(Cl)cc2Cl)c1Cl` (stereo not drawn) [Compound 4-243, 5-Chloro-2-cyclopropyl-4-[2-(2,4-dichlorophenyl)-2-fluoro-propylamino]-6-methoxycarbonyl-pyrimidine], the pest or weed control at 1000 g/ha in assay [1] (setting [13]) was 0%; in assay [2] (setting [14]) it was 40%; with Solanum nigrum (SOLNI) [3] (setting [15]) it was 10%; in [4] (setting [16]) it was 0%; in the assay on Setaria faberi (SETFA) [5] (setting [17]) it was 0%; in assay [6] (setting [18]), 0%. In addition, the pest or weed control at 1000 g/ha was 10% in assay [7] (setting [19]); 80% in assay [8] (setting [20]); 70% with Solanum nigrum (SOLNI) [9] (setting [21]); 0% in assay [10] (setting [22]); 20% in the assay on Setaria faberi (SETFA) [11] (setting [23]); 60% in [12] (setting [24]).
In the case of `COC(=O)c1nc(C2CC2)nc(NCc2ccc(C(C)C)cc2)c1Cl` [Compound 4-74, 5-Chloro-2-cyclopropyl-4-(4-isopropylphenyl-methlamino)-6-methoxycarbonyl-pyrimidine], the pest or weed control at 1000 g/ha in assay [1] (setting [13]) came out at 30%; in assay [2] (setting [14]), 80%; in the assay on Solanum nigrum (SOLNI) [3] (setting [15]), 70%; in assay [4] (setting [16]) it was 10%; with Setaria faberi (SETFA) [5] (setting [17]) it was 10%; in [6] (setting [18]), 60%. Further, the pest or weed control at 1000 g/ha in assay [7] (setting [19]) is 70%; in assay [8] (setting [20]), 90%; in the assay with Solanum nigrum (SOLNI) [9] (setting [21]), 100%; in [10] (setting [22]), 20%; in the assay with Setaria faberi (SETFA) [11] (setting [23]), 80%; in assay [12] (setting [24]), 100%.
Take `COc1c(Cl)ccc(-c2nc(NCC3CC3)c(Cl)c(C(=O)O)n2)c1F` [Compound 109-43, 5-Chloro-2-(4-chloro-2-fluoro-3-methoxyphenyl)-4-cyclopropylmethyl-aminopyrimidine-6-carboxylic acid]: the pest or weed control at 1000 g/ha in assay [1] (setting [25]) was determined as 30%; in assay [2] (setting [26]) it was 100%; in the assay on Solanum nigrum (SOLNI) [3] (setting [27]), 90%; in assay [4] (setting [28]), 10%; with Setaria faberi (SETFA) [5] (setting [29]) it was 60%; in [6] (setting [30]), 70%. Moreover, the pest or weed control at 1000 g/ha in [7] (setting [31]) was determined as 100%; in [8] (setting [32]), 100%; in the assay on Solanum nigrum (SOLNI) [9] (setting [33]), 100%; in assay [10] (setting [34]), 90%; in the assay with Setaria faberi (SETFA) [11] (setting [35]), 90%; in [12] (setting [36]), 80%.
Regarding `COC(=O)c1nc(C2CC2)nc(N[C@H]2CCCC[C@@H]2O)c1Cl` (relative stereo) [4-36 (trans), 5-Chloro-2-cyclopropyl-4-(trans-2-hydroxycyclohexyl-amino)-6-methoxy-carbonylpyrimidine], the pest or weed control at 1000 g/ha in [1] (setting [13]) is 20%; in assay [2] (setting [14]) it was 80%; in the assay on Solanum nigrum (SOLNI) [3] (setting [15]), 70%; in assay [4] (setting [16]) it was 10%; with Setaria faberi (SETFA) [5] (setting [17]) it was 20%; in assay [6] (setting [18]), 60%. The pest or weed control at 1000 g/ha in assay [7] (setting [19]) was 10%; in assay [8] (setting [20]) it was 80%; in the assay on Solanum nigrum (SOLNI) [9] (setting [21]) it was 70%; in [10] (setting [22]), 20%; in the assay with Setaria faberi (SETFA) [11] (setting [23]), 20%; in assay [12] (setting [24]) it was 40%.
With `COC(=O)c1nc(C2CC2)nc(N[C@H](C)c2ccc3ccccc3c2)c1Cl` [4-185 (R), (R)-5-Chloro-2-cyclopropyl-6-methoxycarbonyl-4-[1-(naphtha-2-yl)ethylamino]-pyrimidine], the pest or weed control at 1000 g/ha was found to be 0% in assay [1] (setting [13]); 0% in assay [2] (setting [14]); 0% in the assay with Solanum nigrum (SOLNI) [3] (setting [15]); 0% in assay [4] (setting [16]); 0% in the assay on Setaria faberi (SETFA) [5] (setting [17]); 70% in assay [6] (setting [18]). The pest or weed control at 1000 g/ha in assay [7] (setting [19]) was determined as 0%; in [8] (setting [20]), 80%; in the assay on Solanum nigrum (SOLNI) [9] (setting [21]), 40%; in assay [10] (setting [22]), 0%; in the assay with Setaria faberi (SETFA) [11] (setting [23]), 0%; in assay [12] (setting [24]), 70%.
For the compound `COC(=O)c1nc(Cl)nc(NC2CC2)c1Cl` [Compound 207-30, 4-Cyclopropylamino-2,5-dichloro-6-methoxycarbonyl-pyrimidine], the pest or weed control at 1000 g/ha (in [1] (setting [25]); in assay [2] (setting [26]); in the assay with Solanum nigrum (SOLNI) [3] (setting [27]); in assay [4] (setting [28]); in the assay on Setaria faberi (SETFA) [5] (setting [29]); in [6] (setting [30])) was 0% in each case. The pest or weed control at 1000 g/ha came to 0% in assay [7] (setting [31]); 0% in assay [8] (setting [32]); 10% with Solanum nigrum (SOLNI) [9] (setting [33]); 10% in [10] (setting [34]); 0% in the assay with Setaria faberi (SETFA) [11] (setting [35]); 20% in [12] (setting [36]).
